System: breast cancer stem-like cells (BCSCs), ALDHhigh and CD24low/CD44high
Assay: Anti-stemness activity in breast cancer stem-like cells
Assay type: cell-based
Description: Breast cancer stem-like cells (BCSCs), heterogeneously subsisting as CD24low/CD44high and ALDHhigh subpopulations, are enriched in aggressive breast cancer subtypes and believed to be responsible for driving metastatic colonization. Despite evidence of a clinical association between BCSC and poor prognosis, effective therapeutic means to target this cell population is lacking. We identified SLLN-15 as a compound with selective anti-sternness activity across a panel of cell lines expressing ALDHhigh and CD24low/CD44high markers, including MDA-MB-231, SUM-149PT, BT-20, SKBR3, 4T1 and several anaplastic thyroid cell lines. […] In summary, our data foster that targeting regulatory networks driving sternness represent important therapeutic targets for treating metastatic breast disease.

Question: What does the source list for `c1nc2nc(Nc3ccc(N4CC[Se]CC4)cc3)nc(N[C@H]3CC[Se]C3)c2[nH]1` [SLLN-15]?
Answer: centrosomes clustering (FIGS. 8A and 8B): interferes with centrosomes clustering; cell locomotion (MDA-MB-231, sorted BCSC subpopulation, concurrent inhibition of focal adhesion kinase signaling): induced loss of cell locomotion; BCSC-marker expression, tumorspheres formation, STAT3 activation, mitotic spindle assembly (SLLN-15-treated cells): reduced BCSC-marker expression, tumorspheres formation, STAT3 activation and defective mitotic spindle assembly
